Laboratory results reported in patent publication US20240018118A1, “TRICYCLIC COMPOUNDS TO DEGRADE NEOSUBSTRATES FOR MEDICAL THERAPY” (C 4 Therapeutics, Inc., priority 2020, published 2024).
Where two headings read alike, the source gives them in different places.

Assays:
SALL4 = SALL4 (Homo sapiens, UniProt Q96SW2+Q9UJQ4); assay: HiBiT degradation assay, KELLY.2 (SALL4-HiBiT) cells; format: cell-based; conditions: for DC50: KELLY.2 cells, 6 hours; for Emax: read-out: HiBiT-Degradation KELLY.2 SALL4 6 hours Emax, KELLY.2 cells
Sequence of SALL4 (Q9UJQ4 whole entry): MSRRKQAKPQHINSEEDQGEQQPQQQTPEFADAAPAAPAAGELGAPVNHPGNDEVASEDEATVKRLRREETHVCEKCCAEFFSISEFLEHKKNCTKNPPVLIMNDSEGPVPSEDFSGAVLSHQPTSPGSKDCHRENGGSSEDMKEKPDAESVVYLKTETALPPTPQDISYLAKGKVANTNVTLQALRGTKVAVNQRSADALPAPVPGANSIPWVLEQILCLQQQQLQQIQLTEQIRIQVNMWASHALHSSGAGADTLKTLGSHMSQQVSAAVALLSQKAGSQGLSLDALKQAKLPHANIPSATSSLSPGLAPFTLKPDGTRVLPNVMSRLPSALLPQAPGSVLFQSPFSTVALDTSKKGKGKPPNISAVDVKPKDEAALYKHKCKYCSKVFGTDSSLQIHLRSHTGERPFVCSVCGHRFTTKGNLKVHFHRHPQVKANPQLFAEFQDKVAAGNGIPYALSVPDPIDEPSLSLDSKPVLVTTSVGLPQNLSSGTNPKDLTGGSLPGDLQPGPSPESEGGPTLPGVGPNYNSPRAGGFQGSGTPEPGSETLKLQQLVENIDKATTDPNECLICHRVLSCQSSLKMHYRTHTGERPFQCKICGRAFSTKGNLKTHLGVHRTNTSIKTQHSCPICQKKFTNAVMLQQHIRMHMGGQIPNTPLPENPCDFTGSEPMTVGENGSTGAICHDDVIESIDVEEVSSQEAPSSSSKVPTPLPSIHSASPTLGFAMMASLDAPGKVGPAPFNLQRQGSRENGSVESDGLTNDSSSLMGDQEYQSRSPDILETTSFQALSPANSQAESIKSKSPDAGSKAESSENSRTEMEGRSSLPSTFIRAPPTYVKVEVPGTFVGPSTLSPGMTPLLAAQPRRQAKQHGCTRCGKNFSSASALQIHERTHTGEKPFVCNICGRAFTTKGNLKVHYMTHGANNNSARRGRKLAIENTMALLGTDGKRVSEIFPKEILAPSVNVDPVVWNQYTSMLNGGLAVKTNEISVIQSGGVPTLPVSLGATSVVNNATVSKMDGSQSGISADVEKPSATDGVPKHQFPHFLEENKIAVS
Sequence of SALL4 (Q96SW2 whole entry): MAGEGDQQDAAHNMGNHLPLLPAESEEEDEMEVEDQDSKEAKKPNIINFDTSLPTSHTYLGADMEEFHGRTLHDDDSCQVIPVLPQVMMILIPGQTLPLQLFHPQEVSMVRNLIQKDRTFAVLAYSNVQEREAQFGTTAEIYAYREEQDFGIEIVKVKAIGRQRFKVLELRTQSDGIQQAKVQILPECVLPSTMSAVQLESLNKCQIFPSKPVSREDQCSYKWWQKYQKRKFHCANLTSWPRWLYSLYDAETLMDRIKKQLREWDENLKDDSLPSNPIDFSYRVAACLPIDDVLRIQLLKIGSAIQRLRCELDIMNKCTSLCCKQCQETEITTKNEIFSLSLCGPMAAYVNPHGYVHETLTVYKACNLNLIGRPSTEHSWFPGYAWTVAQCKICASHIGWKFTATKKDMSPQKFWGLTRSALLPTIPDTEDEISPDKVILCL
Sequence of SALL4 (Q16531 2-1140 partner limits assumed): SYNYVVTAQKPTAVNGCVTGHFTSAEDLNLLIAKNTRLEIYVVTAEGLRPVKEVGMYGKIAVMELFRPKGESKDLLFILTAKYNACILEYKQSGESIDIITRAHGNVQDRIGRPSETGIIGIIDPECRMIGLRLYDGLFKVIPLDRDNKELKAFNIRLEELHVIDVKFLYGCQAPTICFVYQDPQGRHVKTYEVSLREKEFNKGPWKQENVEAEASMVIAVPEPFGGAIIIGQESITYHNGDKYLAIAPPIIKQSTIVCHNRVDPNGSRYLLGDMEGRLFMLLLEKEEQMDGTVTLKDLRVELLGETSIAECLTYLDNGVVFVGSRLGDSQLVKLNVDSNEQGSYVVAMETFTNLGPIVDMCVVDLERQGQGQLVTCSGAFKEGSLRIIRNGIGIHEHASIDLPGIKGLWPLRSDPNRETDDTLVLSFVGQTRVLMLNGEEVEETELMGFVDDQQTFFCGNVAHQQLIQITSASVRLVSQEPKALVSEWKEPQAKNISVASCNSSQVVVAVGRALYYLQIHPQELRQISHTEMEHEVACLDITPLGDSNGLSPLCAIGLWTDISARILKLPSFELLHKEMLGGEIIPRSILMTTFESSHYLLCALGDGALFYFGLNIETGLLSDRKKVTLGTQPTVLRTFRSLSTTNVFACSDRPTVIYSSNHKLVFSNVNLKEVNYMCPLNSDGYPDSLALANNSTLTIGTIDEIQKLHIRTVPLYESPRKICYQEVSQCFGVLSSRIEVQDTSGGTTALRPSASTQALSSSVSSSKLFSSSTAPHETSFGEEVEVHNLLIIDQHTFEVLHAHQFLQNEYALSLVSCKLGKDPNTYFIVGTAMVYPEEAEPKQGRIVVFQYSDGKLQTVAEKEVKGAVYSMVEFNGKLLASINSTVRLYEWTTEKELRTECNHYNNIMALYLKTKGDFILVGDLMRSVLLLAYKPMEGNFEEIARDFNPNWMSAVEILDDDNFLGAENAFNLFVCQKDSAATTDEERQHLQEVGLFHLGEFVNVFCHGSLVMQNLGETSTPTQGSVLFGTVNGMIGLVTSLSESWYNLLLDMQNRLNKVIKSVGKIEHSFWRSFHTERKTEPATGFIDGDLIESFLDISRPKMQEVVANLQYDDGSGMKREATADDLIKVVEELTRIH
Procedure: RPMI 1640 Medium without phenol red, fetal bovine serum (FBS), and Sodium Pyruvate (100 mM) were purchased from Gibco (Grand Island, NY, USA). Nano-Glo® HiBiT Lytic Assay System was purchased from Promega (Madison, WI, USA). […] Cell culture flasks and 384-well microplates were acquired from VWR (Radnor, PA, USA).
(§1) SALL4 degradation was determined based on quantification of luminescent signal using Nano-Glo® HiBiT Lytic Assay kit. Test compounds were added to the 384-well plate from a top concentration of 10 μM with 11 points, half log titration in duplicates. KELLY.2 cells were added into 384-well plates at a cell density of 6000 cells per well. The plates were kept at 37° C. with 5% CO2 for 6 hours. The cells treated in the absence of the test compound were the negative control and the cells without Nano-Glo® HiBiT Lytic reagent were the positive control. After 6-hour incubation, Nano-Glo® HiBiT Lytic Assay reagents were added to the cells. Luminescence was acquired on EnVision™ Multilabel Reader (PerkinElmer, Santa Clara, CA, USA).

GSPT1 = GSPT1 (Homo sapiens, UniProt P15170+Q96SW2); assay: HiBiT degradation assay, 293T.114 cells, GSPT1; format: cell-based
Sequence of GSPT1 (P15170 whole entry): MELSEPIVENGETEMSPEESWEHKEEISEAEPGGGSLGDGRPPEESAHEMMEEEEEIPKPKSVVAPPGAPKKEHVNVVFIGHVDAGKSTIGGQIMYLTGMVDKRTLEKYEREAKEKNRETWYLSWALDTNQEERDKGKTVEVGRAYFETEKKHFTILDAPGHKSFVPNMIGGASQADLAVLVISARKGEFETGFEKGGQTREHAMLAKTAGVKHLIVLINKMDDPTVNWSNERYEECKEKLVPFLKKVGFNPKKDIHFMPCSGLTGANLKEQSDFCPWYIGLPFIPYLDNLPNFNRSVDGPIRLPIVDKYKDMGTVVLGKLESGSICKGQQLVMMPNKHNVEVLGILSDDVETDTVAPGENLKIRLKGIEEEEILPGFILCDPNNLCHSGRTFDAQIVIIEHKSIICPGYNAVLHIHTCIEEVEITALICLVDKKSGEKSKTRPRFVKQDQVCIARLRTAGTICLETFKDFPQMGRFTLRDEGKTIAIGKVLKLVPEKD
Sequence of GSPT1 (Q96SW2 whole entry): as the sequence (Q96SW2 whole entry) above
Sequence of GSPT1 (Q16531 2-1140 partner limits assumed): as the sequence (Q16531 2-1140 partner limits assumed) above
Procedure: as §1, with “GSPT1” for “SALL4”, “5” for “11”, “3-fold” for “half log”, “quadruplicates. 293T.114” for “duplicates. KELLY.2”, “The plates were kept at 37° C. with 5% CO2 for 6 hours.” left out, “After 6-hour incubation, Nano-Glo® HiBiT Lytic Assay reagents were added to the cells.” left out

CRBN = target: T1, CRBN (Homo sapiens, UniProt Q96SW2); assay: NanoBRET CRBN binding, 293T.116 cells; conditions: 2 hours
T1 construct: expressed in transfected cells; host or cells: 293T (line named 293T.116)
T1 sequence (Q96SW2 whole entry): as the sequence (Q96SW2 whole entry) above
T1 sequence (Q16531 2-1140 partner limits assumed): as the sequence (Q16531 2-1140 partner limits assumed) above

IKZF1 = target: T2, IKZF1 (Homo sapiens, UniProt Q13422+Q96SW2); assay: HiBiT degradation assay, NCIH929.11 (HiBiT-IKZF1) cells; format: cell-based; conditions: for DC50: NCHI929.11 cells, 6 hours; for Emax: read-out: HiBiT-Degradation NCHI929.11 IKZF1 6 hours Emax, NCHI929.11 cells
T2 construct: endogenously expressing IKZF1 with HiBiT fusion tag via CRISPR; endogenous in cells; host or cells: NCIH929.11 (CRISPR knock-in)
T2 sequence (Q13422 whole entry, the tested form may be a part): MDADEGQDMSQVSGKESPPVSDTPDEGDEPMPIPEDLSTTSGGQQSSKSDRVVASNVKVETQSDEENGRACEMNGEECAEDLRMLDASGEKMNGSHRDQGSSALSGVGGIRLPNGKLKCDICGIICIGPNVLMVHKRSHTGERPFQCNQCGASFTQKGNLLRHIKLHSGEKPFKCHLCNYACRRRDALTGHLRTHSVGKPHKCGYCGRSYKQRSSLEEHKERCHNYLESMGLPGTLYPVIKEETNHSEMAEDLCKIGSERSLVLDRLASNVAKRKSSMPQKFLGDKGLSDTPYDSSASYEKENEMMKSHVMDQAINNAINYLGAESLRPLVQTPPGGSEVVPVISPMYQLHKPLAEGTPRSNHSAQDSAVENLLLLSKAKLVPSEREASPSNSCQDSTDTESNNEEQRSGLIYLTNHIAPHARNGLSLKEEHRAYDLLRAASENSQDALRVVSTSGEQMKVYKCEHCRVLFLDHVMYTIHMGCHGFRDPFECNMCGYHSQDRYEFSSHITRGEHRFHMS
T2 sequence (Q96SW2 whole entry, the tested form may be a part): as the sequence (Q96SW2 whole entry) above
T2 sequence (Q16531 2-1140 partner limits assumed): as the sequence (Q16531 2-1140 partner limits assumed) above
Procedure: RPMI no-phenol red medium and fetal bovine serum (FBS) were purchased from Gibco (Grand Island, NY, USA). Nano-Glo® HiBiT Lytic Assay System was purchased from Promega (Madison, WI, USA). NCIH929.11 (HiBiT-IKZF1) cell line was generated in house, endogenously expressing IKZF1 with HiBiT fusion tag via CRISPR. Cell culture flasks and 384-well microplates were acquired from VWR (Radnor, PA, USA).
IKZF 1 degradation was determined based on quantification of luminescent signal using Nano-Glo® HiBiT Lytic Assay kit. Test compounds were added to the 384-well plate from a top concentration of 10 μM with 11 points, half-log titration in duplicates. NCIH929.11 cells expressing HiBiT-tagged TKZF1 were added into 384-well plates in RPMI medium containing 10% FBS and 0.05 mM 2-mercaptoethanol at a cell density of 15000 cells per well. The plates were kept at 37° C. with […] for 6 hours. Cells treated in the absence of the test compound were the negative control and wells containing media only were the positive control. After 6-hour incubation, Nano-Glo® HiBiT Lytic Assay reagents were added to the designated wells. Luminescence was acquired on EnVision™ Multilabel Reader (PerkinElmer, Santa Clara, CA, USA).

[1] = 293T.114 cells, 6 hours, read-out: HiBiT-Degradation 293T.114 GSPT1 6 hours DC50
[2] = read-out: HiBiT-Degradation 293T.114 GSPT1 6 hours Emax, 293T.114 cells, 6 hours

Structure (SMILES)	DC50 (SALL4)	Emax (SALL4)	DC50 (GSPT1; [1])	Emax (GSPT1; [2])	IC50 (CRBN)	DC50 (IKZF1)	Emax (IKZF1)	DC50 (GSPT1; 293T.114 cells, 24 hours, read-out: HiBiT-Degradation 293T.114 GSPT1 24 hours DC50)	Emax (GSPT1; 293T.114 cells, 24 hours, read-out: HiBiT-Degradation 293T.114 GSPT1 24 hours Emax)	Emax (GSPT1; read-out: GSPT1 Emax @ 10 μM 24 Hours, 24 hours)
O=C1CCC(N2C(=O)c3ccc(C4(F)CCN(Cc5ccccc5)CC4)c4nccc2c34)C(=O)N1 (stereo not drawn) [Compound 81, 3-[18-(1-benzyl-4-fluoro-4-piperidyl)-24-oxo-27,30-diazatricyclododeca-5(17),6(18),7(19),8(27),20-pentaen-30-yl]piperidine-2,6-dione]	< 100 nM	< 45%	> 100 nM	60 to 95%	–	–	–	–	–	–
O=C1CCC(N2C(=O)c3ccc(CN4CC(Oc5ccccc5)C4)c4cccc2c34)C(=O)N1 (stereo not drawn) [Compound 158]	< 100 nM	< 45%	< 100 nM	< 45%	< 100 nM	< 100 nM	< 45%	< 100 nM	< 45%	–
CC1(n2cc(Cc3ccc4c5c(cccc35)C(=O)N4C3CCC(=O)NC3=O)cn2)CCN(C(=O)C2(C(F)(F)F)CC2)CC1 (stereo not drawn) [Compound 203]	< 100 nM	< 45%	> 10000 nM	60 to 95%	< 100 nM	–	–	–	–	–
O=C1CCC(N2C(=O)c3ccc(CN4CC(Oc5ccccc5)C4)c4cccc2c34)C(=O)N1 (stereo not drawn) [Compound 63, 3-(2-oxo-5-((3-phenoxyazetidin-1-yl)methyl)benzo[cd]indol-1(2H)-yl)piperidine-2,6-dione]	–	–	–	–	–	–	–	–	–	< 45%
CN1CC(c2ccc3c4c(cccc24)N(C2CCC(=O)NC2=O)C3=O)C1 (stereo not drawn) [Compound 90, 3-[5-(1-methylazetidin-3-yl)-2-oxo-benzo[cd]indol-1-yl]piperidine-2,6-dione]	< 100 nM	< 45%	> 100 nM	60 to 95%	–	–	–	–	–	–
CN(c1ccc2c3c(cccc13)N(C1CCC(=O)NC1=O)C2=O)C1CCN(Cc2ccccc2)C1 (stereo not drawn) [Compound 220]	–	–	> 100 nM	60 to 95%	–	–	–	–	–	–
CC(C)(C)OC(=O)N1CCC(n2cc(Cc3ccc4c5c(cccc35)C(=O)N4[C@H]3CCC(=O)NC3=O)cn2)CC1 [Compound 197, tert-butyl 4-[4-[[1-[(3S)-2,6-dioxo-3-piperidyl]-2-oxo-benzo[cd]indol-6-yl]methyl]pyrazol-1-yl]piperidine-1-carboxylate]	< 100 nM	< 45%	> 10000 nM	60 to 95%	–	< 100 nM	< 45%	–	–	–
O=C1CCC(N2C(=O)c3ccc(N4CCc5ccccc54)c4cccc2c34)C(=O)N1 (stereo not drawn) [Compound 209, 3-(5-indolin-1-yl-2-oxo-benzo[cd]indol-1-yl)piperidine-2,6-dione]	< 100 nM	< 45%	> 10000 nM	60 to 95%	–	> 10000 nM	60 to 95%	–	–	–
O=C1CCC(N2C(=O)c3cccc4c(Cc5cnn(C6CCN(C(=O)C7(C(F)(F)F)CCC7)CC6)c5)ccc2c34)C(=O)N1 (stereo not drawn) [Compound 201]	< 100 nM	< 45%	> 10000 nM	> 95%	< 100 nM	–	–	–	–	–
Cc1cc(C)nc(-c2ccc3c4c(cccc24)N(C2CCC(=O)NC2=O)C3=O)n1 (stereo not drawn) [Compound 87, 3-[5-(4,6-dimethylpyrimidin-2-yl)-2-oxo-benzo[cd]indol-1-yl]piperidine-2,6-dione]	< 100 nM	< 45%	> 100 nM	60 to 95%	–	–	–	–	–	–
Cc1ccc(CN2CCC(c3ccc4c5c(cccc35)N(C3CCC(=O)NC3=O)C4=O)CC2)cc1F (stereo not drawn) [Compound 176]	> 10000 nM	60 to 95%	> 10000 nM	60 to 95%	< 100 nM	–	–	–	–	–
